± gives the expanded uncertainty stated by the source.
Assay: Boiling temperature at pressure P
Details: 101.33 kPa; Liquid; Ebulliometric method (Recirculating still)

Boiling temperature at pressure P [°C]	Compound
205.10 ± 0.05	COc1ccccc1O [2-methoxyphenol]
153.54 ± 0.05	COc1ccccc1 [anisole]

Compound	Boiling temperature at pressure P [°C]
CCCCOC(C)=O [butyl ethanoate]	125.92 ± 0.05

Reference: the NIST ThermoML archive (doi:10.1016/j.jct.2015.04.003)
